In patent publication US20260241013A1, “TARGETED PROTEIN DEGRADATION USING PRODRUGS OF BIFUNCTIONAL COMPOUNDS THAT BIND UBIQUITIN LIGASE AND A TARGET MCL-1 PROTEIN” (Captor Therapeutics S.A., priority 2022, published 2026):
Where two headings read alike, the source gives them in different places.

Tests used:
Format in all cases: cell-based
[1] = Cell viability assay (CellTiter-Glo, CTG protocol), ARH-77; conditions: human, ARH-77 cells (lymphoblast-like), ARH-77 (MCL-1 independent line), 24 hours incubation, 1% FBS, read-out: Average pCC50 by molecule ARH-77 (converted)
Excerpt: (§1) The effect of various compounds of the invention on the viability of MV4-11 and ARH-77 cell lines was investigated, using the CTG protocol described below.
(§2) MV4-11 cell lines are derived from acute myeloid leukaemia and it is described in the literature as a MCL-1 dependent cell line, as opposed to lymphoblast-like ARH-77 cell line, which is described as independent of MCL-1 (Tron A E et al. Nat Commun. 2018; 9: 5341; Caenepeel S et al. Cancer Discov. 2018 December; 8(12): 1582-1597).
(§3) Cells (MV4-11 or ARH-77) were seeded on […] in a growth medium with 1% FBS. Next, compound stocks were pre-diluted in DMSO and added directly to the cell culture media (final DMSO concentration: 0.5%). Compound concentrations used in this assay: 1/3 dilutions starting at 30 μM (9 to 12 points). After 24 hours of incubation, cell viability was evaluated using CellTiter-Gob® Luminescent Cell Viability Assay (Promega, cat #G7572). The luminescence signal was measured using a CLARIOstar Plus Multi-Mode Microplate Reader (574-590 nm).
(§4) Results were normalized to DMSO control. Collected data were analyzed using GraphPad Prism to calculate pCC50 values (i.e. the negative log of the CC50 value). CC50 (50% cytotoxic concentration) is the effective concentration of a cytotoxic compound, which produces 50% of the maximum possible cell death (i.e. the concentration of the compound which is required in order to reduce cell viability by 50%). CC50 is often used rather than IC50 in cell toxicity assays.

MV4-11 cells = assay: Cell viability assay (CellTiter-Glo, CTG protocol), MV4-11; conditions: Homo sapiens, MV4-11 (MCL-1 dependent AML line), 24 hours incubation, 1% FBS, read-out: Average pCC50 by molecule MV4-11 (converted)
Excerpt: as §1, §2, §3, §4

CRBN = target: T1, CRBN (Homo sapiens, UniProt Q96SW2); assay: NanoBRET In-cell CRBN Target Engagement Assay (live and lytic mode), NanoLuc CRBN HEK293 cells
T1 construct: host or cells: HEK293 (NanoLuc CRBN HEK293 cells)
Method: Commercially available, NanoBRET In-cell CRBN Target Engagement Assay (NanoBRET CRBN TE Assay), which uses NanoLuc CRBN HEK293 cells and NanoBRET In-cell CRBN Tracer was used (N2910, N2912, PROMEGA) to determine the cell membrane permeability of prodrugs of MCL-1 degraders.
The assay was run in 96-well plate format (cat. 3600, Corning). NanoLuc CRBN HEK293 cells were treated with CRBN Tracer and compounds. Briefly, prepared was cell suspension (0.17×10^6cells/ml) in Opti-MEM without phenol red (Life Technologies). The cells were treated with CRBN Tracer (20× concentrated, 5 μl/well. For the live mode: 0.8 μM and for the lytic: 0.17 μM final concentration) or DMSO vehicle control (20× concentrated, 5 μl/well). Such prepared cells were seeded into the wells of 96-well plate on top of compounds (100× concentrated, 1 μl/well; 11-point 2-fold dilution) pre-plated on them with the help of Echo 555 acoustic dispenser (Labcyte). For the lytic mode assay, Digitonin (0.05 mg/ml, 10× concentrated, 10 μl/well) was added additionally. In the live mode assay, the plate was incubated at 37° C., 5% CO2 for 2 hours, and then at room temperature for 15 minutes to cool down. In the lytic mode assay, there was no incubation. The 3×Complete NanoBRET reagent (50 μl/well) was prepared according to the manufacturer's recommendations, appropriately for live and lytic mode. The plate was incubated for 2 minutes at room temperature and the luminescence and fluorescence readings followed using CLARIOstar Multimode Plate Reader (donor emission RLU—450 nm; acceptor emission RFU—610 nm). RBA value is an indicator of cell membrane permeability (the lower, the better) is calculated from absolute pIC50 (the negative log of the absolute IC50 value when converted to molar) of the live mode assay (pIC50 Live) and the lytic mode assay (pIC50 Lytic).

[2] = live mode, intact cells, 2 hours at 37° C., read-out: pIC50 (live) (converted)
[3] = lytic mode, digitonin-lysed cells, no incubation, read-out: pIC50 (lytic) (converted)

T1 sequence (Q96SW2 whole entry): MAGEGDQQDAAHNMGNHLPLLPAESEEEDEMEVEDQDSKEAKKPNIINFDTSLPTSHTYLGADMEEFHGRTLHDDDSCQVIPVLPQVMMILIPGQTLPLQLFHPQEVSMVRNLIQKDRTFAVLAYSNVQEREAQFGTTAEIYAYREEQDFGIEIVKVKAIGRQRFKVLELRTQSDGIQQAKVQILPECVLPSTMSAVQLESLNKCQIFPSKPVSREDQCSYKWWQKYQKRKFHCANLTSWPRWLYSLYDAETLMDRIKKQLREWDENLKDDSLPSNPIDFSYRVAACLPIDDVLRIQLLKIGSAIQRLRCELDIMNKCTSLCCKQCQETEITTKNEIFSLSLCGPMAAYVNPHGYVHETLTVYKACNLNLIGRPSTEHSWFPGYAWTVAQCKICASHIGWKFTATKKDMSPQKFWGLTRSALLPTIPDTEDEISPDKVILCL

IC50 (CRBN; [2]) | IC50 (CRBN; [3]) | SMILES | CC50 at 24 h [1] | CC50 (MV4-11 cells)
0.0398 µM | 0.0794 µM | Cc1nn(C)c(C)c1-c1c(Cl)ccc2c(CCCOc3cccc4cc(F)ccc34)c(C(=O)OCOC(=O)CCO)n(CCN3CCN(C(=O)COc4cccc5c4CN(C4CCC(=O)NC4=O)C5=O)CC3)c12 (stereo not drawn) [Compound 43] | > 3.16 µM | < 0.00316 µM
– | – | Cc1nn(C)c(C)c1-c1c(Cl)ccc2c(CCCOc3cccc4cc(F)ccc34)c(C(=O)OCOC(=O)C3CCNCC3)n(CCN3CCN(C(=O)COc4cccc5c4CN(C4CCC(=O)NC4=O)C5=O)CC3)c12 (stereo not drawn) [Compound 55, ((Piperidine-4-carbonyl)oxy)methyl 6-chloro-1-(2-(4-(2-((2-(2,6-dioxopiperidin-3-yl)-1-oxoisoindolin-4-yl)oxy)acetyl)piperazin-1-yl)ethyl)-3-(3-((6-fluoronaphthalen-1-yl)oxy)propyl)-7-(1,3,5-trimethyl-1H-pyrazol-4-yl)-1H-indole-2-carboxylate] | > 10 µM | < 0.1 µM
– | – | COCCOCC(=O)OCOC(=O)c1c(CCCOc2cccc3cc(F)ccc23)c2ccc(Cl)c(-c3c(C)nn(C)c3C)c2n1CCN1CCN(C(=O)COc2cccc3c2CN(C2CCC(=O)NC2=O)C3=O)CC1 (stereo not drawn) [Compound 57, (2-(2-Methoxyethoxy)acetoxy)methyl 6-chloro-1-(2-(4-(2-((2-(2,6-dioxopiperidin-3-yl)-1-oxoisoindolin-4-yl)oxy)acetyl)piperazin-1-yl)ethyl)-3-(3-((6-fluoronaphthalen-1-yl)oxy)propyl)-7-(1,3,5-trimethyl-1H-pyrazol-4-yl)-1H-indole-2-carboxylate] | > 10 µM | < 0.01 µM
0.0251 µM | 7.94 µM | Cc1nn(C)c(C)c1-c1c(Cl)ccc2c(CCCOc3cccc4cc(F)ccc34)c(C(=O)OCOC(=O)C(C)(C)C)n(CCN3CCN(C(=O)Cn4c(C)nc5c(C(=O)NC6CCC(=O)NC6=O)cccc54)CC3)c12 (stereo not drawn) [Compound 70, (6-Chloro-1-{2-[4-(2-{4-[(2,6-dioxopiperidin-3-yl)carbamoyl]-2-methyl-1H-1,3-benzodiazol-1-yl}acetyl)piperazin-1-yl]ethyl}-3-{3-[(6-fluoronaphthalen-1-yl)oxy]propyl}-7-(1,3,5-trimethyl-1H-pyrazol-4-yl)-1H-indole-2-carbonyloxy)methyl 2,2-dimethylpropanoate] | > 31.6 µM | < 0.01 µM
– | – | Cc1nn(C)c(C)c1-c1c(Cl)ccc2c(CCCOc3cccc4cc(F)ccc34)c(C(=O)OCOC(=O)C(C)(C)C)n(CCN3CCC(CN4CCN(c5ccc6c(c5)CN([C@H]5CCC(=O)NC5=O)C6=O)CC4)CC3)c12 [Compound 71, (Pivaloyloxy)methyl (S)-6-chloro-1-(2-(4-((4-(2-(2,6-dioxopiperidin-3-yl)-1-oxoisoindolin-5-yl)piperazin-1-yl)methyl)piperidin-1-yl)ethyl)-3-(3-((6-fluoronaphthalen-1-yl)oxy)propyl)-7-(1,3,5-trimethyl-1H-pyrazol-4-yl)-1H-indole-2-carboxylate] | > 10 µM | < 0.1 µM
0.00631 µM | 0.398 µM | Cc1nn(C)c(C)c1-c1c(Cl)ccc2c(CCCOc3cccc4cc(F)ccc34)c(C(=O)OCOC(=O)C(C)(C)C)n(CCN3CCN(C(=O)COc4cccc5c4n(C)c(=O)n5C4CCC(=O)NC4=O)CC3)c12 (stereo not drawn) [Compound 73, (Pivaloyloxy)methyl 6-chloro-1-(2-(4-(2-((1-(2,6-dioxopiperidin-3-yl)-3-methyl-2-oxo-2,3-dihydro-1H-benzo[d]imidazol-4-yl)oxy)acetyl)piperazin-1-yl)ethyl)-3-(3-((6-fluoronaphthalen-1-yl)oxy)propyl)-7-(1,3,5-trimethyl-1H-pyrazol-4-yl)-1H-indole-2-carboxylate] | > 1 µM | < 0.00316 µM
– | – | CC(=O)OC(C)OC(=O)c1c(CCCOc2cccc3cc(F)ccc23)c2ccc(Cl)c(-c3c(C)nn(C)c3C)c2n1CCN1CCN(C(=O)COc2cccc3c2CN(C2CCC(=O)NC2=O)C3=O)CC1 (stereo not drawn) [Compound 75, 1-Acetoxyethyl 6-chloro-1-(2-(4-(2-((2-(2,6-dioxopiperidin-3-yl)-1-oxoisoindolin-4-yl)oxy)acetyl)piperazin-1-yl)ethyl)-3-(3-((6-fluoronaphthalen-1-yl)oxy)propyl)-7-(1,3,5-trimethyl-1H-pyrazol-4-yl)-1H-indole-2-carboxylate] | > 31.6 µM | < 0.01 µM
– | – | Cc1nn(C)c(C)c1-c1c(Cl)ccc2c(CCCOc3cccc4cc(F)ccc34)c(C(=O)OC(C)OC(=O)OC(C)C)n(CCN3CCN(C(=O)COc4cccc5c4CN(C4CCC(=O)NC4=O)C5=O)CC3)c12 (stereo not drawn) [Compound 99, 1-{[(Propan-2-yloxy)carbonyl]oxy}ethyl 6-chloro-1-{2-[4-(2-{[2-(2,6-dioxopiperidin-3-yl)-1-oxo-2,3-dihydro-1H-isoindol-4-yl]oxy}acetyl)piperazin-1-yl]ethyl}-3-{3-[(6-fluoronaphthalen-1-yl)oxy]propyl}-7-(1,3,5-trimethyl-1H-pyrazol-4-yl)-1H-indole-2-carboxylate] | > 31.6 µM | < 0.0316 µM
– | – | Cc1nn(C)c(C)c1-c1c(Cl)ccc2c(CCCOc3cccc4cc(F)ccc34)c(C(=O)OC(C)OC(=O)OC3CCCCC3)n(CCN3CCN(C(=O)COc4cccc5c4CN(C4CCC(=O)NC4=O)C5=O)CC3)c12 (stereo not drawn) [Compound 100, 1-(((Cyclohexyloxy)carbonyl)oxy)ethyl 6-chloro-1-(2-(4-(2-((2-(2,6-dioxopiperidin-3-yl)-1-oxoisoindolin-4-yl)oxy)acetyl)piperazin-1-yl)ethyl)-3-(3-((6-fluoronaphthalen-1-yl)oxy)propyl)-7-(1,3,5-trimethyl-1H-pyrazol-4-yl)-1H-indole-2-carboxylate] | > 31.6 µM | < 0.0316 µM
– | – | Cc1nn(C)c(C)c1-c1c(Cl)ccc2c(CCCOc3cccc4cc(F)ccc34)c(C(=O)OCCS(C)(=O)=O)n(CCN3CCN(C(=O)COc4cccc5c4CN(C4CCC(=O)NC4=O)C5=O)CC3)c12 (stereo not drawn) [Compound 124, 2-(Methylsulfonyl)ethyl 6-chloro-1-(2-(4-(2-((2-(2,6-dioxopiperidin-3-yl)-1-oxoisoindolin-4-yl)oxy)acetyl)piperazin-1-yl)ethyl)-3-(3-((6-fluoronaphthalen-1-yl)oxy)propyl)-7-(1,3,5-trimethyl-1H-pyrazol-4-yl)-1H-indole-2-carboxylate] | > 31.6 µM | < 1 µM
0.316 µM | 0.355 µM | Cc1nn(C)c(C)c1-c1c(Cl)ccc2c(CCCOc3cccc4cc(F)ccc34)c(C(=O)OCCN3CCOCC3)n(CCN3CCN(C(=O)COc4cccc5c4CN(C4CCC(=O)NC4=O)C5=O)CC3)c12 (stereo not drawn) [Compound 129, 2-Morpholinoethyl 6-chloro-1-(2-(4-(2-((2-(2,6-dioxopiperidin-3-yl)-1-oxoisoindolin-4-yl)oxy)acetyl)piperazin-1-yl)ethyl)-3-(3-((6-fluoronaphthalen-1-yl)oxy)propyl)-7-(1,3,5-trimethyl-1H-pyrazol-4-yl)-1H-indole-2-carboxylate] | – | –
0.398 µM | 0.251 µM | Cc1nn(C)c(C)c1-c1c(Cl)ccc2c(CCCOc3cccc4cc(F)ccc34)c(C(=O)OCCN3CCN(C)CC3)n(CCN3CCN(C(=O)COc4cccc5c4CN(C4CCC(=O)NC4=O)C5=O)CC3)c12 (stereo not drawn) [Compound 133, 2-(4-Methylpiperazin-1-yl)ethyl 6-chloro-1-(2-(4-(2-((2-(2,6-dioxopiperidin-3-yl)-1-oxoisoindolin-4-yl)oxy)acetyl)piperazin-1-yl)ethyl)-3-(3-((6-fluoronaphthalen-1-yl)oxy)propyl)-7-(1,3,5-trimethyl-1H-pyrazol-4-yl)-1H-indole-2-carboxylate] | – | –
